The results in this text go back to US20050175550A1, “Compositions for oral use” (priority 2000, published 2005).

Common to all, as to assay type: cell-based
Experiment [1] has as its system Porphyromonas gingivalis W83, ATCC33277 and M1217. In words: Antibacterial test, propagation by turbidity in broth (Example 1). Conditions: medium containing 0.1 mM or 1.0 mM trifluoromethionine, FIGS. 1-3. As for the experimental part: (§1) 3 ml of GAM broth (Nissui Medical) containing 5 μg/ml of hemin and 1 μg/ml of menadione was separately incubated with one platinum loop each of subcultures of strains Porphyromonas gingivalis W83, ATCC33277 and M1217, and strain Fusobacterium nucleatum ATCC10953, followed by incubation at 37° C. under anaerobic conditions (10% CO2, 10% H2, 80% N2) overnight. The same fresh medium as above was inoculated with the resulting culture in such an amount that an absorbance at 550 nm of the inoculated medium could be about 0.15, followed by incubation under the same condition as above. Furthermore, the above-mentioned strains were incubated in the above-mentioned medium further containing 0.1 mM or 1.0 mM trifluoromethionine. Absorbance at 550 nm of the individual cultures was measured with time to evaluate propagation of bacteria through the turbidity of the medium. Results are shown in FIG. 1 to 4 (A to D), where the results of using the trifluoromethionine-free medium are shown by □ curve, and those of using media containing 0.1 mM and 1.0 mM trifluoromethionine, respectively, are shown by ▪ and ● curves.

The test system of experiment [2] is Fusobacterium nucleatum ATCC10953. Described as above. Conditions: medium containing 0.1 mM or 1.0 mM trifluoromethionine, FIG. 4. The protocol: as §1
In another experiment the test system is S. sanguis ST160. In words: Minimum growth-inhibiting concentration on agar media (Example 2). Conditions: Brain Heart Infusion, 5% CO2. The protocol: (§2) 3 ml of GAM broth (Nissui Medical) containing 5 μg/ml of hemin and 1 μg/ml of menadione was separately inoculated with one platinum loop each of subcultures of causative bacteria of periodontal disease, strains Porphyromonas gingivalis W83, W50, ATCC49417 and ATCC33277, strain Actinobacillus actinomycetemcomitans Y4, and strains Fusobacterium nucleatum ATCC10953 and ATCC25586, followed by incubation at 37° C. under anaerobic conditions (10% CO2, 10% H2 and 80% N2) overnight. Then, the resulting cultures were diluted to 10^−8, 10^−6, 10^−4 and 10^−3 to make inoculating bacterial solutions, respectively.
(§3) Agar media containing 400, 200, 100, 50, 25, 10 and 5 μg/ml of TFM, respectively, were prepared and streaked, about 2 cm long, with a platinum loop each of the above-prepared inoculating bacterial solutions, followed by incubation under the same anaerobic conditions as above at 37° C. for 48-72 hours to evaluate growth of the bacteria.
(§4) Streptococcus sobrinus MT8246, Streptococcus sanuis ST160, Streptococcus mutans Xc and Streptococcus salivarius HHT were likewise incubated in Brain Heart Infusion (Difco) in the same manner as above except that the incubation was conducted in the presence of 5% CO2 to evaluate the growth.

Another experiment relates to Streptococcus mutans Xc. The experiment is described as above. Conditions: S. mutans Xc; Brain Heart Infusion, 5% CO2. As for the experimental part: as §2, §3, §4
In experiment [3] the test system is Streptococcus salivarius HHT. The experiment is described as above. Conditions: S. salivarius HHT; Brain Heart Infusion, 5% CO2. The protocol: as §2, §3, §4
The test system of experiment [4] is Streptococcus sobrinus MT8246. The experiment is described as above. The note with it: S. sobrinus MT8246; Brain Heart Infusion, 5% CO2. The protocol:
as §2, §3, §4

Experiment [5] has as its system Porphyromonas gingivalis W50. The description is as above. Conditions: P. gingivalis W50, anaerobic, 37° C., 48-72 hours. The protocol: as §2, §3
Experiment [6] relates to Fusobacterium nucleatum ATCC25586. Described as above. The note with it: F. nucleatuium ATCC 25586, anaerobic, 37° C., 48-72 hours. The protocol:
as §2, §3

Experiment [7] concerns Porphyromonas gingivalis ATCC49417. The description is as above. The note with it: P. gingivalis ATCC 49417, anaerobic, 37° C., 48-72 hours. The protocol: as §2, §3
Experiment [8] concerns Porphyromonas gingivalis W83. The experiment is described as above. The note with it: P. gingivalis W83, anaerobic, 37° C., 48-72 hours. As for the experimental part:
as §2, §3

Experiment [9] concerns Fusobacterium nucleatum ATCC10953. The experiment is described as above. Conditions: F. nucleatuium ATCC 10953, anaerobic, 37° C., 48-72 hours. As for the experimental part:
as §2, §3

The subject of experiment [10] is Actinobacillus actinomycetemcomitans Y4. The experiment is described as above. The note with it: A. actinomycetemcomitans Y4, anaerobic, 37° C., 48-72 hours. As for the experimental part:
as §2, §3

Experiment [11] has as its system Porphyromonas gingivalis ATCC33277. Described as above. Conditions: P. gingivalis ATCC 33277, anaerobic, 37° C., 48-72 hours. The protocol: as §2, §3
In another experiment the test system is Escherichia coli BL 21. In words: Antibacterial test, propagation by turbidity in broth (Example 1). Conditions: medium containing 0.1 mM or 1.0 mM trifluoromethionine, FIG. 6.
Experiment [12] concerns Actinobacillus actinomycetemcomitans Y4. The experiment is described as above. The note with it: medium containing 0.1 mM or 1.0 mM trifluoromethionine, FIG. 5.

In the case of `N[C@@H](CCSC(F)(F)F)C(=O)O` [TFM, Trifluoromethionine], the “antibacterial effect (propagation of bacteria, absorbance at 550 nm)” value in [1] is given as “remarkable antibacterial effects”; in experiment [2] it was “remarkable antibacterial effects”; in the experiment on Escherichia coli BL 21, “failed to show a significant antibacterial effect”; in [12], “remarkable antibacterial effects”. Also, the Minimum growth-inhibiting concentration was above 400 µg/mL in the experiment with S. sanguis ST160; above 400 µg/mL in the experiment on Streptococcus mutans Xc; above 400 µg/mL in experiment [3]; above 400 µg/mL in experiment [4]; 5 µg/mL in experiment [5]; 25 µg/mL in experiment [6]. Also, the Minimum growth-inhibiting concentration in [7] is 5 µg/mL; in [8], 5 µg/mL; in experiment [9], 25 µg/mL; in experiment [10], 10 µg/mL; in experiment [11], 5 µg/mL.
